The text below walks through data of patent US6900225B2, “Quinolonecarboxylic acid derivative” (Daiichi Pharmaceutical Co., Ltd., priority 2001, dated 2005).

Molecules are shown by their SMILES. In brackets after ≈: the same amount, converted by molar mass. Entries after “also recorded” stand apart in the source; their conditions may differ. Structures can show the parent of a compound that is named as a salt.

The subject of data set [1] is Slc:ddY mice. In words: Central toxicity after cisternal administration, alone or combined with biphenylacetic acid. It is filed as in vivo. As to conditions: 5 μg/mouse. As for the experimental part:
Slc:ddY mice (male; 3 weeks old) were used in groups of ten. Compound (1) was dissolved in distilled water in order to prepare injections, and the resultant solution was cisternally administered in a volume of […]. To the members of the group where compound (1) and biphenylacetic acid were used in combination, biphenylacetic acid (400 mg/kg) was perorally administered first, and 30 minutes following the administration, compound (1) was cisternally administered in a manner similar to that employed for the single use of compound (1).

In data set [2] the test system is S. epidermidis, 56500. In words: Antibacterial activity (MIC), Japanese Society of Chemotherapy standard method. It counts as cell-based. The following applies: Staphylococcus epidermidis. The protocol: (§1) Antibacterial activity was investigated by comparing compound (1) with comparative compounds B and C (see next page). This test was performed according to the standard method recommended by Japanese Society of Chemotherapy.

Data set [3] concerns Ps. aeruginosa, 32121. The data set is described as above. It counts as cell-based. The following applies: Pseudomonas aeruginosa. The protocol:
as §1

For data set [4], the system named is S. aureus, 209P. Described as above. It counts as cell-based. The following applies: Staphylococcus aureus. As for the experimental part:
as §1

The subject of data set [5] is Ps. aeruginosa, 32104. The description is as above. It counts as cell-based. The following applies: Pseudomonas aeruginosa. As for the experimental part: as §1
Data set [6] has as its system Str. faecalis, ATCC 19433. Described as above. It is filed as cell-based. The following applies: Enterococcus faecalis, ATCC19433. The protocol:
as §1

Data set [7] concerns Ser. marcescens, 10100. The data set is described as above. As to conditions: Serratia marcescens. It counts as cell-based. As for the experimental part: as §1
The test system of data set [8] is Pr. vulgaris, 08601. Described as above. It is filed as cell-based. The following applies: Proteus vulgaris. As for the experimental part:
as §1

Data set [9] has as its system E. coli, NIHJ. The data set is described as above. It is filed as cell-based. The following applies: Escherichia coli. As for the experimental part: as §1
Data set [10] in a line: Moisture absorption/desorption (moisture absorption analyzer, weight change at 5-95% RH). It is filed as physicochemical. The following applies: 25° C., relative humidity 5-95% RH; monohydrochloride monohydrate. As for the experimental part:
Moisture absorption/desorption of compound (1) was investigated by using samples each weighing approximately 10 mg and a moisture absorption analyzer manufactured by VTI (model SGA-100). The measurement was performed at 25° C., and the relative humidity was changed in the range of 5% to 95% at intervals of 5% or 10%. When the weight change of a sample is 0.03% or less within 30 minutes, the sample is considered to be in a state of equilibrium, and in this test, the longest equilibrium time was set to be 180 minutes. The weight change of each sample at different relative humidities was determined.

Data set [11] has as its system Balb/c mice. Description: Phototoxicity: intravenous administration, then UV-A exposure. It is filed as in vivo. The following applies: intravenous 100 mg/kg, UV-A 20 J/cm^2 for four hours. The protocol:
Groups of Balb/c mice (female; 5 weeks old), each group consisting of 5-6 mice, were used in the test. After compound (1) was intravenously administered to each mouse, the mouse was exposed to long-wavelength UV light (UV-A) (20 J/cm^2) for four hours. Thereafter, the auricle was visually observed for 96 hours. Subsequently the mouse was sacrificed for examination of the tissue. […] Thus, compound (1) is a very safe compound, being free from phototoxicity, which is often observed with quinolone-based antibacterial agents.

In data set [12] the test system is E. coli strain E77156. In words: Infection-preventing effect on mouse sepsis model (E. coli). The following applies: Slc:ddY mice, intraperitoneal E. coli E77156 8.08×10^7 CFU/mouse, single tail vein injection. It is filed as in vivo. The protocol: (§2) Groups of Slc:ddY mice, each group consisting of 7 mice, were used in the test. The mice were intraperitoneally inoculated with methicillin-resistant Staphylococcus aureus (MRSA) strain 7866 (1.07×10^8 CFU/mouse) or E. coli strain E77156 (8.08×10^7 CFU/mouse). Compound (1) was given as a single injection into the tail vein of each mouse immediately after infection. On the basis of the survival count on day 7 after infection, 50% efficacy was calculated using the probit method, to thereby evaluate the efficacy.

Data set [13] deals with arthrodial cartilage of young beagles. Description: Articular toxicity in young beagles, peroral for eight days. It is filed as in vivo. As to conditions: 7.5 mg/kg, 15 mg/kg and 30 mg/kg. The text has this:
Groups of young beagles (male; 3-4 months old), each group consisting of 3 dogs, were used in the test. Compound (1) was perorally administered to each dog for eight days. Thereafter, important diarthroses were pathologically examined. […] Thus, articular toxicity of compound (1) is quite weak and insignificant, proving that compound (1) is a very safe compound.

Data set [14] is described as follows: Solubility in water. It is filed as physicochemical. The text has this:
Solubility of compound (1) in water was investigated.

Data set [15] relates to methicillin-resistant Staphylococcus aureus (MRSA) strain 7866. Description: Infection-preventing effect on mouse sepsis model (MRSA). The following applies: Slc:ddY mice, intraperitoneal MRSA 7866 1.07×10^8 CFU/mouse, single tail vein injection. It is filed as in vivo. The protocol: as §2
For data set [16], the system named is pneumococcus SPI-13. In words: Therapeutic effect on mouse pneumonia model with pneumococcus of low penicillin sensitivity. As to conditions: CBA/J mice. It is filed as in vivo. The protocol: Groups of CBA/J mice, each group consisting of 5 mice, were used in the test. The mice were nasally infected with pneumococcus SPI-13 at 5.3×10^6 CFU/mouse. Compound (1) was subcutaneously administered to each mouse at doses of 7.5 mg/kg, 15 mg/kg, or 30 mg/kg, for three consecutive days from the day following infection, twice a day at an interval of 6 hours. The efficacy of compound (1) was assessed by counting the number of the intrapulmonary bacteria on the day following the final administration.

Data set [17] can be described thus: Storage stability for one week (heat, humidity, light), residual amount by liquid chromatography. It is filed as physicochemical. As for the experimental part:
Compound (1) (1.5 mg) was stored for one week under the following conditions: (1) in a sealed bottle at 70° C., (2) in an open-air state at 50° C., 75% RH (NaCl), or (3) irradiation with light at 100,000 lx·h (2,500 lx×40 h). Subsequently, the residual amount of compound (1) was quantitatively determined by means of liquid chromatography.

The nature of data set [18]: Stability of acid addition salts of compound (1a) under various levels of humidity. As to conditions: high-humidity conditions.
Setting [19] is: combined: biphenylacetic acid 400 mg/kg perorally 30 minutes before cisternal administration.
[20] abbreviates: solo cisternal administration, groups of ten.

In the case of `COc1c(N2C[C@@H](N)[C@@H](C)C2)c(F)cc2c(=O)c(C(=O)O)cn([C@@H]3C[C@@H]3F)c12` [Comparative Compound A, reference compound], the values for the Death entry in [1] (setting [19]) and in data set [1] (setting [20]) were “two” and “one”, respectively. Further, the Spasm result in data set [1] (setting [20]) is “two”.
In the case of `CCOc1c(N2C[C@@H](N)C3(CC3)C2)c(F)cc2c(=O)c(C(=O)O)cn([C@@H]3C[C@@H]3F)c12` [Comparative Compound B], the MIC amounted to 0.1 µg/mL (≈ 0.238 µM) in data set [2]; 0.2 µg/mL (≈ 0.477 µM) in [3]; 0.025 µg/mL (≈ 0.0596 µM) in data set [4]; 0.39 µg/mL (≈ 0.93 µM) in [5]; 0.2 µg/mL (≈ 0.477 µM) in data set [6]; 0.2 µg/mL (≈ 0.477 µM) in [7]. The MIC in data set [8] worked out at 0.05 µg/mL (≈ 0.119 µM); in data set [9], 0.006 µg/mL (≈ 0.0143 µM).
For the compound `CCOc1c(N2CC(C)C(N)C2)c(F)cc2c(=O)c(C(=O)O)cn([C@@H]3C[C@@H]3F)c12` (stereo partly shown) [Comparative Compound C], the MIC in data set [2] amounted to 0.2 µg/mL (≈ 0.491 µM); in data set [3] it was 0.39 µg/mL (≈ 0.957 µM); in data set [4], 0.05 µg/mL (≈ 0.123 µM); in data set [5] it was 0.78 µg/mL (≈ 1.91 µM); in [6] it was 0.39 µg/mL (≈ 0.957 µM); in data set [7], 0.2 µg/mL (≈ 0.491 µM). The MIC in data set [8] was 0.05 µg/mL (≈ 0.123 µM); in [9] it was 0.025 µg/mL (≈ 0.0614 µM).
Regarding `COc1c(N2C[C@@H](N)C3(CC3)C2)c(F)cc2c(=O)c(C(=O)O)cn([C@@H]3C[C@@H]3F)c12` [Compound (1), (−)-7-[(7S)-7-amino-5-azaspiro[2.4]heptan-5-yl]-6-fluoro-1-[(1R, 2S)-2-fluoro-1-cyclopropyl]-1,4-dihydro-8-methoxy-4-oxo-3-quinolinecarboxylic acid monohydrochloride monohydrate], in data set [10], the “Moisture absorption/desorption (weight change)” value is listed as “neither absorbing or desorbing moisture; also recorded: do not absorb or desorb moisture”. Besides, the “Phototoxicity: abnormality of auricle (visual observation 96 hours, tissue examination)” value in [11] is on record as “no abnormality was observed”. The “50% efficacy (probit method, survival count on day 7)” value in [12] was determined as 0.57 mg/kg; in [15], 3.34 mg/kg. Also, the “Formation of blebs or erosions in arthrodial cartilage” value in [13] is reported as “not at all observed”. Further, the Death entry in [1] (setting [19]) and in data set [1] (setting [20]) was “neither spasm nor death” throughout. Besides, the Spasm entry in [1] (setting [19]) and in data set [1] (setting [20]) was “neither spasm nor death” in each case. In addition, the MIC was 0.05 µg/mL in data set [2]; 0.05 µg/mL in data set [3]; 0.006 µg/mL in data set [4]; 0.2 µg/mL in data set [5]; 0.1 µg/mL in data set [6]; 0.05 µg/mL in data set [7]. In addition, the values for the minimal inhibitory concentration (MIC) in [8] and in data set [9] were 0.012 µg/mL and at most 0.003 µg/mL, respectively. The same compound gave a solubility in [14] of at least 100 mg/mL. Moreover, the “Number of intrapulmonary bacteria” value is “approximately half that of the control” in data set [16] (subcutaneous 7.5 mg/kg twice a day for three days), “below the detection limit” in [16] (subcutaneous 15 mg/kg twice a day for three days) and “below the detection limit” in data set [16] (subcutaneous 30 mg/kg twice a day for three days). Besides, the “Stability when exposed to light, compared with compound No. 26bb” value in [17] (light 100,000 lx·h (2,500 lx×40 h)) was “superior to that of compound No. 26bb”. Besides, the “Stability (residual amount by liquid chromatography)” value in data set [17] (one week: sealed bottle 70° C., open 50° C., 75% RH, light 100,000 lx·h) was “remained stable, not undergoing any decomposition”.
On to `COc1c(N2C[C@@H](N)C3(CC3)C2)c(F)cc2c(=O)c(C(=O)O)cn([C@@H]3C[C@@H]3F)c12.CS(=O)(=O)O` [methanesulfonic acid salt, Methanesulfonic Acid Salt of (−)-7-{(7S)-7-amino-5-azaspiro[2.4]heptan-5-yl}-6-fluoro-1-[(1R, 2S)-2-fluoro-1-cyclopropyl]-1,4-dihydro-8-methoxy-4-oxo-3-quinolinecarboxylic acid], for which, in data set [18], the “Stability under various levels of humidity” value was “tendency toward moisture absorption”.

The term MIC denotes the least concentration at which growth counts as inhibited. A low value points to a more susceptible organism. In general, solubility refers to the dissolved amount per volume that the medium holds.
